Assay results published in patent publication US8921362B2, “6,7-dialkoxy quinazoline derivatives and methods of treating drug resistant and other tumors” (Natco Pharma Limited, priority 2008, dated 2014).

Experiments:
Assay in all cases: KinomeScan
Assay type in all cases: binding
Conditions in all cases: read-out: % Ctrl @ 10000 nM
VEGFR2 = target: T1, VEGFR2 (Homo sapiens, UniProt P35968)
T1 construct: host or cells: E. coli host derived from BL21, T7 phage
Procedure: (§1) Kinase assays: Assays were performed as described in Fabian et al. (2005) Nature Biotechnology, vol. 23, p. 329. Kinase-tagged T7 phage strains were grown in parallel in 24 or 96-well blocks in an E. coli host derived from the BL21 strain. E. coli were grown to log-phase and infected with T7 phage from a frozen stock (multiplicity of infection ˜0.1) and incubated with shaking at 32° C. until lysis (−90 minutes). The lysates were centrifuged and filtered to remove cell debris. […] The liganded beads were blocked with excess biotin and washed with blocking buffer (SeaBlock (Pierce), 1% BSA, 0.05% Tween 20, 1 mM DTT) to remove unbound ligand and to reduce non-specific phage binding.
(§2) Test compounds were prepared as 40× stocks in DMSO and diluted into the aqueous environment. 2.5% DMSO was added to control assays lacking a test compound. All reactions were performed in polystyrene 96-well plates that had been pretreated with blocking buffer in a final volume of 0.04 ml. […] The phage titer in the eluates was measured by quantitative PCR.

PIP5K2B = target: T2, PIP5K2B (Homo sapiens, UniProt P78356)
T2 construct: host or cells: T7 phage in E. coli host derived from BL21
Procedure: as §1, §2

ERK2 = target: T3, ERK2 (Homo sapiens, UniProt P28482)
T3 construct: purchased Ambit Biosciences Corp; host or cells: T7 phage in E. coli host derived from BL21
T3 sequence (P28482 whole entry): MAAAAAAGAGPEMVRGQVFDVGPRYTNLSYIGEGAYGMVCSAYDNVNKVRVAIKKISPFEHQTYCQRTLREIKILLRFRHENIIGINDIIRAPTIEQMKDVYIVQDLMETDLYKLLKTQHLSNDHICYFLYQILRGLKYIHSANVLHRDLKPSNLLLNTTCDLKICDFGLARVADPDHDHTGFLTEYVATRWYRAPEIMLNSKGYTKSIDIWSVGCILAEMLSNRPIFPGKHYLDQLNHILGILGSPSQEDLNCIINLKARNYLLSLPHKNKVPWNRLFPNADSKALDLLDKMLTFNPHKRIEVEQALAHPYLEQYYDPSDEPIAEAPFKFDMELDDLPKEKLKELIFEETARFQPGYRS
Procedure: as §1, §2

FGFR3(G697C) = target: T4, FGFR3(G697C) (Homo sapiens, UniProt P22607, G697C)
T4 construct: host or cells: T7 phage in E. coli host derived from BL21
Procedure: as §1, §2

IKK-beta = target: T5, IKK-beta (Homo sapiens, UniProt O14920)
T5 construct: host or cells: T7 phage grown in E. coli host derived from BL21
Procedure: as §1, §2

RIPK1 = target: T6, RIPK1 (Homo sapiens, UniProt Q13546)
T6 construct: host or cells: E. coli host derived from BL21, T7 phage display
Procedure: as §1, §2

SLK = target: T7, SLK (Homo sapiens, UniProt Q9H2G2)
T7 construct: host or cells: T7 phage grown in E. coli (BL21-derived)
Procedure: as §1, §2

MAPKAPK2 = target: T8, MAPKAPK2 (Homo sapiens, UniProt P49137)
T8 construct: host or cells: E. coli host derived from the BL21 strain, infected with T7 phage
Procedure: as §1, §2

PLK3 = target: T9, PLK3 (Homo sapiens, UniProt Q9H4B4)
T9 construct: host or cells: T7 phage in E. coli host derived from BL21
Procedure: as §1, §2

YSK1 = target: T10, YSK1 (Homo sapiens, UniProt O00506)
T10 construct: host or cells: T7 phage grown in an E. coli host derived from BL21
Procedure: as §1, §2

FAK = target: T11, FAK (Homo sapiens, UniProt Q05397)
T11 construct: purchased Ambit Biosciences Corp; host or cells: T7 phage in E. coli host derived from BL21
Procedure: as §1, §2

BIKE = target: T12, BIKE (Homo sapiens, UniProt Q9NSY1)
T12 construct: host or cells: E. coli host derived from BL21
Procedure: as §1, §2

NLK = target: T13, NLK (Homo sapiens, UniProt Q9UBE8)
T13 construct: host or cells: E. coli host derived from BL21, infected with T7 phage
Procedure: as §1, §2

PIK3CD = target: T14, PIK3CD (Homo sapiens, UniProt O00329)
T14 construct: host or cells: T7 phage in E. coli host derived from BL21
Procedure: as §1, §2

ZAK = target: T15, ZAK (Homo sapiens, UniProt Q9NYL2)
T15 construct: host or cells: T7 phage grown in an E. coli host derived from BL21
Procedure: as §1, §2

EPHA8 = target: T16, EPHA8 (Homo sapiens, UniProt P29322)
T16 construct: purchased Ambit Biosciences Corp; host or cells: T7 phage in E. coli host derived from BL21
Procedure: as §1, §2

MARK3 = target: T17, MARK3 (Homo sapiens, UniProt P27448)
T17 construct: host or cells: E. coli host derived from the BL21 strain, infected with T7 phage
Procedure: as §1, §2

JNK1 = target: T18, JNK1 (Homo sapiens, UniProt P45983)
T18 construct: host or cells: T7 phage grown in E. coli host derived from BL21
Procedure: as §1, §2

ERK1 = target: T19, ERK1 (Homo sapiens, UniProt P27361)
T19 construct: purchased Ambit Biosciences Corp; host or cells: T7 phage in E. coli host derived from BL21
T19 sequence (P27361 whole entry): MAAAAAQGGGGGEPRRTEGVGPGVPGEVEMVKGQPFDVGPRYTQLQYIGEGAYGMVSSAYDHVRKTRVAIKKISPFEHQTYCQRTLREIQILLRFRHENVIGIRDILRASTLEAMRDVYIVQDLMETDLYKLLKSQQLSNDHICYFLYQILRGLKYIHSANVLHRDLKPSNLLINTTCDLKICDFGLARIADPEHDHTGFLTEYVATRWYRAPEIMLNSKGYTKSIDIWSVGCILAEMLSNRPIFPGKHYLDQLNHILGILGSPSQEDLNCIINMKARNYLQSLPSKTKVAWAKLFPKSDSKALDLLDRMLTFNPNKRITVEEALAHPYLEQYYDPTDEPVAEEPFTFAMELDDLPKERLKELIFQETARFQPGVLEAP
Procedure: as §1, §2

MAP4K5 = target: T20, MAP4K5 (Homo sapiens, UniProt Q9Y4K4)
T20 construct: host or cells: E. coli host derived from the BL21 strain, infected with T7 phage
Procedure: as §1, §2

SRMS = target: T21, SRMS (Homo sapiens, UniProt Q9H3Y6)
T21 construct: host or cells: T7 phage grown in E. coli (BL21-derived)
T21 sequence (Q9H3Y6 whole entry): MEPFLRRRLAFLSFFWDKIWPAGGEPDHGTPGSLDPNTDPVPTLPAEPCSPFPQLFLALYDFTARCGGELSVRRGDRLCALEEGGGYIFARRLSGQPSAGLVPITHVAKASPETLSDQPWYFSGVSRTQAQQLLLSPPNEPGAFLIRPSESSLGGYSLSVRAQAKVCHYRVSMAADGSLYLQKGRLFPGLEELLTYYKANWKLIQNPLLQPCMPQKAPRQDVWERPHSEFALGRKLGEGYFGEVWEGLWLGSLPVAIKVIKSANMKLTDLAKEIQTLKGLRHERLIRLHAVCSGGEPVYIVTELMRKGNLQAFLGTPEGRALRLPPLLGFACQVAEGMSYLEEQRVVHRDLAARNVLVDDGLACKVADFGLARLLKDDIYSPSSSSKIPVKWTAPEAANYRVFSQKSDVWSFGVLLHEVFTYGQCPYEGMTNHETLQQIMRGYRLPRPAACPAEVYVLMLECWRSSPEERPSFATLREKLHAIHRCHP
Procedure: as §1, §2

SIK2 = target: T22, SIK2 (Homo sapiens, UniProt Q9H0K1)
T22 construct: host or cells: T7 phage grown in E. coli (BL21-derived)
Procedure: as §1, §2

MET = target: T23, MET (Homo sapiens, UniProt P08581)
T23 construct: host or cells: E. coli host derived from the BL21 strain, infected with T7 phage
T23 sequence (P08581 25-1390): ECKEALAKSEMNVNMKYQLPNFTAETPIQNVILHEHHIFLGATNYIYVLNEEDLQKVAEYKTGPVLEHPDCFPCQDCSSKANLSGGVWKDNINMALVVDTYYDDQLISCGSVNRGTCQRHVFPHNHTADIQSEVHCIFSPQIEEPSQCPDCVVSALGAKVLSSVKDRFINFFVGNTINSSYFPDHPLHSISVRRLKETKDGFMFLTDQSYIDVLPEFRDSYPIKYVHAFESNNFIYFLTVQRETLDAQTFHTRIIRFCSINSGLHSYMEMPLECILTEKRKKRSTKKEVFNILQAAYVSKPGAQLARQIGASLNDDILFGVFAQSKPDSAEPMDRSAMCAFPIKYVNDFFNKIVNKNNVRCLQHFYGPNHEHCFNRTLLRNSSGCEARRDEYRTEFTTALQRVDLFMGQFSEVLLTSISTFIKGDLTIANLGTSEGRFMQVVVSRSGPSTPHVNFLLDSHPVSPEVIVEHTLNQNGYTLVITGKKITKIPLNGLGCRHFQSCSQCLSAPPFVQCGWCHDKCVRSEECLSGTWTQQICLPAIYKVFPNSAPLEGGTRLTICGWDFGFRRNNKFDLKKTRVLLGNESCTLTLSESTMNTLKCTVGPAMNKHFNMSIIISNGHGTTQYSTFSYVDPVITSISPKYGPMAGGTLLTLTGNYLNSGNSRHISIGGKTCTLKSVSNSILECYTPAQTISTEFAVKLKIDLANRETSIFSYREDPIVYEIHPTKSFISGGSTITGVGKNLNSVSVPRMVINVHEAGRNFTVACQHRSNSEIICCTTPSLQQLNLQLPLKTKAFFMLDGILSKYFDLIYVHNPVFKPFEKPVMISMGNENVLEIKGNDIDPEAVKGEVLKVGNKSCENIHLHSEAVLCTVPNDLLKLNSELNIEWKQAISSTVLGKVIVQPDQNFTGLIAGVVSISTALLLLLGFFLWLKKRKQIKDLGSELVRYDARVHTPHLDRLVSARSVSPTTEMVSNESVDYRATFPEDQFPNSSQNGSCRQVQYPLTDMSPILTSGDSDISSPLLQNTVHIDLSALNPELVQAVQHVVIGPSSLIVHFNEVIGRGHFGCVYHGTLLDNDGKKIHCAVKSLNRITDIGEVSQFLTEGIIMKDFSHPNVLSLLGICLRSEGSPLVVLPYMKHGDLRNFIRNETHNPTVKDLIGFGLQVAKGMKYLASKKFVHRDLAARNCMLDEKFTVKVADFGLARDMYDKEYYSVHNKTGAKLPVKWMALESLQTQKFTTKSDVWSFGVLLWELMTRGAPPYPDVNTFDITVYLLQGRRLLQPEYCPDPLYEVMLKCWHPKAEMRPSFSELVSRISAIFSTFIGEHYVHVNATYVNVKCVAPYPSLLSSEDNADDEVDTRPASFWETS
Procedure: as §1, §2

CHEK2 = target: T24, CHEK2 (Homo sapiens, UniProt O96017)
T24 construct: host or cells: T7 phage in E. coli host derived from BL21
Procedure: as §1, §2

PCTK2 = target: T25, PCTK2 (Homo sapiens, UniProt Q00537)
T25 construct: host or cells: E. coli host derived from BL21, infected with T7 phage
T25 sequence (Q00537 whole entry): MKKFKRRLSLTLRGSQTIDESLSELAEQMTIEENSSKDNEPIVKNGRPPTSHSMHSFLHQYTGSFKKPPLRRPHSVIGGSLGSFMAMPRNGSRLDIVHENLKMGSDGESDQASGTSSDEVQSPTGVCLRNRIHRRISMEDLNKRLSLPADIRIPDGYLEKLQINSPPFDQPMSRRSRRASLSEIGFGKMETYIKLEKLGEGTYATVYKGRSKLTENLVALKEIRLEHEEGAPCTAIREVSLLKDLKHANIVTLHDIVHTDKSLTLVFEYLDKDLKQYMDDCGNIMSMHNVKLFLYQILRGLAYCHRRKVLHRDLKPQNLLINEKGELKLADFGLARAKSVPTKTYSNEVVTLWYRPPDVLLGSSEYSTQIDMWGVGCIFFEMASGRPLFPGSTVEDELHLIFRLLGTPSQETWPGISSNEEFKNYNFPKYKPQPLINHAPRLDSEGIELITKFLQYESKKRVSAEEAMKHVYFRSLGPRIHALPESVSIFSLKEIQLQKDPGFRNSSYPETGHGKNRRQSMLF
Procedure: as §1, §2

CAMKK1 = target: T26, CAMKK1 (Homo sapiens, UniProt Q8N5S9)
T26 construct: host or cells: T7 phage in E. coli host derived from BL21
Procedure: as §1, §2

CAMK2D = target: T27, CAMK2D (Homo sapiens, UniProt Q13557)
T27 construct: host or cells: E. coli host derived from BL21
Procedure: as §1, §2

ULK1 = target: T28, ULK1 (Homo sapiens, UniProt O75385)
T28 construct: host or cells: E. coli host derived from BL21, T7 phage
Procedure: as §1, §2

TNK2 = target: T29, TNK2 (Homo sapiens, UniProt Q07912)
T29 construct: host or cells: E. coli host derived from BL21, T7 phage
Procedure: as §1, §2

LYN = target: T30, LYN (Homo sapiens, UniProt P07948)
T30 construct: host or cells: E. coli host derived from the BL21 strain, infected with T7 phage
Procedure: as §1, §2

EPHA7 = target: T31, EPHA7 (Homo sapiens, UniProt Q15375)
T31 construct: purchased Ambit Biosciences Corp; host or cells: T7 phage in E. coli host derived from BL21
T31 sequence (Q15375 28-998): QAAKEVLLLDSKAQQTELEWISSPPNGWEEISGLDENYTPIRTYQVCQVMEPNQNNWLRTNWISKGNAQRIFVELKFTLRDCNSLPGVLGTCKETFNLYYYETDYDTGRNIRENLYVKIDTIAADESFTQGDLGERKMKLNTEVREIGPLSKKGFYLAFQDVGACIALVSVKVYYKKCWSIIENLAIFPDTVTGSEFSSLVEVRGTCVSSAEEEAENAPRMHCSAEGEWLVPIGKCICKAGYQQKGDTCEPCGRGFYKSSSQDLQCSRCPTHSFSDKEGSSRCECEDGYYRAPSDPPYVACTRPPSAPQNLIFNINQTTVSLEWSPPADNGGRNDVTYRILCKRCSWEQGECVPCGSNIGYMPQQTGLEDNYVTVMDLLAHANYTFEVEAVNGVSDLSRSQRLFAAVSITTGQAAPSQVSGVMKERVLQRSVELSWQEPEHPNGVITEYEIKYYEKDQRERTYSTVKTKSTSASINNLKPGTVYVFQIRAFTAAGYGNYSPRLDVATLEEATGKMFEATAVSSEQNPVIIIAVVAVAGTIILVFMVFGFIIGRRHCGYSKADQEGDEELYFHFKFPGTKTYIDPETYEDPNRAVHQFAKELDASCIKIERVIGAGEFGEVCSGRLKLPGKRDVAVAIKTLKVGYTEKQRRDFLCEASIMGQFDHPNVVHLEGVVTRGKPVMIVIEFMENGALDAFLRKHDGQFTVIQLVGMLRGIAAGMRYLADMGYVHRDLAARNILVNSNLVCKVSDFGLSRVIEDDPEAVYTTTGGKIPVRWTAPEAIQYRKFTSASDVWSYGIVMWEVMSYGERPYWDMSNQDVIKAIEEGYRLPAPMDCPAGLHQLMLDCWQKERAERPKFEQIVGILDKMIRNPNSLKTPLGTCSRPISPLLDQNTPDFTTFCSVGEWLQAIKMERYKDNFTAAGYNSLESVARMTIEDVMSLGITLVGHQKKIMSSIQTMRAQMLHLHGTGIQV
Procedure: as §1, §2

FLT3(D835Y) = target: T32, FLT3(D835Y) (Homo sapiens, UniProt P36888, D835Y)
T32 construct: host or cells: T7 phage in E. coli host derived from BL21
Procedure: as §1, §2

PRKX = target: T33, PRKX (Homo sapiens, UniProt P51817)
T33 construct: host or cells: E. coli host derived from BL21, T7 phage display
T33 sequence (P51817 whole entry): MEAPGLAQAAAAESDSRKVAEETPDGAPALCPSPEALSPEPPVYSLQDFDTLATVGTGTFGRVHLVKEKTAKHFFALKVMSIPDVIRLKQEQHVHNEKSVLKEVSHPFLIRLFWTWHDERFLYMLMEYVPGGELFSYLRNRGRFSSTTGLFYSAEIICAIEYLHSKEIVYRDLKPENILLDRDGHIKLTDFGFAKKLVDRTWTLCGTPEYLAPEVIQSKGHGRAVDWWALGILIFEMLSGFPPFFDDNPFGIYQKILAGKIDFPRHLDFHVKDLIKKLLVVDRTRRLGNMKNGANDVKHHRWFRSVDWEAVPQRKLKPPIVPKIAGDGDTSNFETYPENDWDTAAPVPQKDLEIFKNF
Procedure: as §1, §2

STK16 = target: T34, STK16 (Homo sapiens, UniProt O75716)
T34 construct: host or cells: T7 phage grown in E. coli (BL21-derived)
T34 sequence (O75716 whole entry): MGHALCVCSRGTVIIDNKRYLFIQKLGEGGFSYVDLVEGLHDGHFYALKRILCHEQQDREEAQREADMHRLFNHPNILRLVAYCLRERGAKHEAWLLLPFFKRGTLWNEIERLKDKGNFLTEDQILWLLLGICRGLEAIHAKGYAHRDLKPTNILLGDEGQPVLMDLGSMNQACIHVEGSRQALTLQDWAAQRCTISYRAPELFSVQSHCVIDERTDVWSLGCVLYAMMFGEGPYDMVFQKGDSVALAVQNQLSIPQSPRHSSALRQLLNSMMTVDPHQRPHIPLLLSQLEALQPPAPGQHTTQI
Procedure: as §1, §2

SRC = target: T35, SRC (Homo sapiens, UniProt P12931)
T35 construct: host or cells: T7 phage grown in E. coli (BL21-derived)
Procedure: as §1, §2

With `C#Cc1cccc(Nc2ncnc3cc(OC)c(OCCCN4CCOCC4)cc23)c1` [NRC-2694, N-(3-ethynylphenyl)-7-methoxy-6-[3-(4-morpholinyl)propoxy]-4-quinazolinamine] the remaining binding at 10 µM (VEGFR2) was 95%, the remaining binding at 10 µM (PIP5K2B) was 49% and the remaining binding at 10 µM (ERK2) was 100%. For the same compound, the remaining binding at 10 µM (FGFR3(G697C)) was 82%, the remaining binding at 10 µM (IKK-beta) was 51% and the remaining binding at 10 µM (RIPK1) was 100%. For the same compound, the remaining binding at 10 µM (SLK) was 0.3%, the remaining binding at 10 µM (MAPKAPK2) was 90% and the remaining binding at 10 µM (PLK3) was 97%. For the same compound, the remaining binding at 10 µM (YSK1) was 69%, the remaining binding at 10 µM (FAK) was 85% and the remaining binding at 10 µM (BIKE) was 36%. For the same compound, the remaining binding at 10 µM (NLK) was 55%, the remaining binding at 10 µM (PIK3CD) was 89% and the remaining binding at 10 µM (ZAK) was 74%. For the same compound, the remaining binding at 10 µM (EPHA8) was 66%, the remaining binding at 10 µM (MARK3) was 62% and the remaining binding at 10 µM (JNK1) was 99%. It also gave a remaining binding at 10 µM (ERK1) of 98%, a remaining binding at 10 µM (MAP4K5) of 23% and a remaining binding at 10 µM (SRMS) of 100%. The remaining binding at 10 µM (SIK2) was 21%, the remaining binding at 10 µM (MET) was 33% and the remaining binding at 10 µM (CHEK2) was 38%. It also gave a remaining binding at 10 µM (PCTK2) of 72%, a remaining binding at 10 µM (CAMKK1) of 71% and a remaining binding at 10 µM (CAMK2D) of 35%. For the same compound, the remaining binding at 10 µM (ULK1) was 100%, the remaining binding at 10 µM (TNK2) was 37% and the remaining binding at 10 µM (LYN) was 13%. The remaining binding at 10 µM (EPHA7) was 70%, the remaining binding at 10 µM (FLT3(D835Y)) was 9.4% and the remaining binding at 10 µM (PRKX) was 100%. The remaining binding at 10 µM (STK16) was 100% and the remaining binding at 10 µM (SRC) was 24%.
